Measurements published in patent US20200291100A1, “TREATMENT OF AGE-RELATED AND MITOCHONDRIAL DISEASES BY INHIBITION OF HIF-1 ALPHA FUNCTION” (President and Fellows of Harvard College, priority 2012, published 2020).

Assays:
[1] = tested on: PGC-1α/β knockout myotubes; experiment: HIF stabilizing compounds in PGC-1α/β knockout myotubes with or without SIRT1 overexpression; type: cell-based, mouse
Protocol: Next whether the ability of SIRT1 to regulate mitochondrial function independently of PGC-1α/β is mediated by HIF-1α was tested. […] Furthermore, cells expressing a mutant allele of HIF-1α that is constitutively stabilized due to the replacement of the two hydroxylated prolines with alanines (DPA) (FIG. 7A), caused genome asynchrony similar to hypoxia and treatment with DMOG (FIG. 7B).
Primary myoblasts cells were isolated from WT, SIRT1 KO (Price et al., 2012) and PGC-1α/β KO (Zechner et al., 2010) mice as previously described (Price et al., 2012). WT and PGC-1α/β KO primary myoblasts were plated and allowed to differentiate into myotubes by replacing the media with low glucose DMEM supplemented with 2% horse serum (Sigma-Aldrich) for 4 days. After the differentiation the cells were infected with empty vector or flag-SIRT1 adenovirus as described before (Gerhart-Hines et al., 2007). Media was replaced with fresh DMEM supplemented with 2% horse serum (Sigma-Aldrich) for an additional 48 hr and, after that the cells were harvested for the different assays as described. To investigate the role of HIF-1α in genome asynchrony, PGC-1α/β KO primary myotubes were treated for 12 hours with 1 mM DMOG (Sigma) or 10 μM DFO (Sigma), 24 h after infection with empty vector of flag-SIRT1 adenovirus or after 12 h treatment with […] NMN (Sigma).
RNA from skeletal muscle tissue and C2C12 cells were extracted with RNeasy mini kit (Qiagen) according to the instructions and quantified using the NanoDrop 1000 spectrophotometer (Thermo Scientific). cDNA was synthesized with the iSCRIP cDNA synthesis kit (BioRad) using 600 ng of RNA. Quantitative RT-PCR reactions were performed using 1 μM of primers and LightCycler® 480 SYBR Green Master (Roche) on an LightCycler® 480 detection system (Roche). Calculations were performed by a comparative method (2-ΔCT) using 18S as an internal control. For mtDNA analysis, total DNA was extracted with DNeasy blood and tissue kit (Qiagen). mtDNA was amplified using primers specific for the mitochondrial cytochrome c oxidase subunit 2 (COX2) gene and normalized to genomic DNA by amplification of the ribosomal protein s18 (rps18) nuclear gene. […]
Protein extracts from tissue or C2C12 cells were obtained by lysis in ice-cold lysis buffer (150 mM NaCl, 10 mM Tris HCl (pH 7.4), 1 mM EDTA, 1 mM EGTA, 1% Triton X-100, 0.5% NP-40) supplemented with a cocktail of protease and phosphatase inhibitors (Roche). Protein content was determined by the Bradford protein assay (Biorad), and 50 μg proteins were run on SDS-PAGE under reducing conditions. […] The immunostaining was detected using horseradish peroxidase-conjugated anti-rabbit or anti-mouse immunoglobulin for 1 h at room temperature.

[2] = tested on: 3- and 24-month-old C57BL/6J mice; experiment: NMN treatment of 3- and 24-month-old mice, skeletal muscle readouts; type: in vivo, mouse; conditions: NMN 500 mg/kg IP, one week
Protocol: C57BL/6J mice of 3, 6, 22, 24, or 30 months of age were obtained from the National Institutes of Aging mouse aging colony. Mice were acclimated for at least one-week prior to sacrifice. 3, and 24-month-old mice were given interperitoneal (IP) injections of 500 mg NMN/kg body weight per day or the equivalent volume of PBS for 7 consecutive days at 5:00 pm and 7:00 am on day 8 and sacrificed 4 hr after last injection. All animal studies followed the guidelines of and were approved by the Harvard Institutional Animal Care and Use Committee
Skeletal muscle mitochondria were isolated as described previously (Frezza et al., Nat. Protoc. 2:287-295 (2007)). Mitochondrial membrane potential, cytochrome c activity and succinate dehydrogenase were determined as described (Brautigan et al., Methods Enzymol. 53:128-164 (1978); Rolo et al., Biochim. Biophys. Acta. 1637:127-132 ([…]); Singer, T. P., Methods Biochem. Anal. 22:123-175 (1974)). ATP content was measured with a commercial kit according to the manufacturer's instructions (Roche).
NAD^+ from C2C12 cells and skeletal muscle was quantified with a commercially available kit (BioVision) according to the manufacturer's instructions and as described before (Gomes et al., Biochim. Biophys. Acta. 1822:185-195 (2012)).
To test whether a decline in NAD^+ availability, invokes a pseudohypoxic response in muscle that inhibits mitochondrial function, we treated 3- and 24-month-old C57BL/6J mice for one week by intraperitoneal injection of nicotinamide mononucleotide (NMN) (500 mg/kg body weight), a compound that increases NAD^+ levels in a variety of tissues. After the treatment, levels of cellular NAD^+ in both the young and old mice were approximately 2-fold higher, such that the treated 24-month-old mice resembled the untreated 3-month-olds (FIG. 10A).

[3] = skeletal muscle, treated old (24-month) mice

Row | Compound | expression of mitochondrial-encoded genes ([1]; DMOG compared to vehicle control, no SIRT1 overexpression) | HIF-1α protein (immunoblot) ([1]; DMOG versus DMSO (FIG. 21C)) | effect on induction of mitochondrial ETC genes by SIRT1 overexpression ([1]; SIRT1 adenovirus, 1 mM DMOG or 10 μM DFO, 12 hours) | expression of HIF-1α target genes (PGK-1, Glut1, PKD1, VEGFa) ([2]; gastrocnemius, qPCR, 24-month-old mice) | HIF-1α in muscle (immunoblot) ([2]; gastrocnemius, 24-month-old mice) | levels of cellular NAD+ ([2]; gastrocnemius, young and old mice, versus untreated) | mitochondrial membrane potential ([2]; isolated skeletal muscle mitochondria, treated old (24-month) mice) | ATP levels [2, 3] | COX activity [2, 3]
1 | COC(=O)CNC(=O)C(=O)OC [DMOG, dimethyloxaloylglycine] | induced a decline | stabilizes HIF-1α protein | completely blocked | – | – | – | – | – | –
2 | NC(=O)c1ccc[n+]([C@@H]2O[C@H](COP(=O)([O-])O)[C@@H](O)[C@H]2O)c1 [NMN, nicotinamide mononucleotide] | – | – | – | suppressed the expression | reversed the age-induced increase | approximately 2 fold | restoration of mitochondrial membrane potential to the levels of the young mice | increases | increases
